Source: patent US20030220517A1, “Method for producing ketocarboxylic acid derivatives” (priority 2000, published 2003)

Tests used:
[1] = log P determination by HPLC on reversed-phase column (EEC Directive 79/831 Annex V.A8); format: physicochemical; details: reversed-phase C18 HPLC column, reversed-phase column (C 18), 43° C., acidic range pH 2.3, 0.1% aqueous phosphoric acid/acetonitrile gradient
Procedure: The log P values given in the use examples above are determined in accordance with EEC Directive 79/831 Annex V.A8 by HPLC (High Performance Liquid Chromatography) on a reversed-phase column (C 18). Temperature: 43° C. The determination is carried out in the acidic range at pH 2.3 using the mobile phases 0.1% aqueous phosphoric acid and acetonitrile; linear gradient from 10% acetonitrile to 90% acetonitrile. Calibration is carried out using unbranched alkan-2-ones (with 3 to 16 carbon atoms) with known logP values (determination of the logP values by the retention times using linear interpolation between two successive alkanones).

Row | Compound | chromatographic logP [1] | melting point [°C]
1 | CC(C)(C)OC(=O)N1C(=O)CCC1c1ccc(-c2ccc(OC(F)(F)F)cc2)cc1 (centres unmarked) [XI-1, tert-butyl 2-oxo-5-[4′-(trifluoromethoxy)-1,1′-biphenyl-4-yl]-1-pyrrolidinecarboxylate] | 4.32 | –
2 | O=C(O)CCC(=O)c1ccc(-c2ccc3c(c2)OC(F)(F)C(F)(F)O3)cc1 [Example 5, 4-oxo-4-(3′,4′-tetrafluoroethylenedioxo-biphenyl-4-yl)butyric acid] | – | 165 to 168
3 | CC(C)(C)OC(=O)NC(CCC(=O)c1c(F)cccc1F)c1ccc(-c2ccc(OC(F)(F)F)cc2)cc1 (centres unmarked) [XIII-1, tert-butyl 4-(2,6-difluorophenyl)-4-oxo-1-[4′-(trifluoromethoxy)-1,1′-biphenyl-4-yl]butylcarbamate] | 5.18 | –
4 | Fc1cccc(F)c1C1=N[C@@H](c2ccc(-c3ccc(OC(F)(F)F)cc3)cc2)CC1 [Example V-1, (2R)-5-(2,6-difluorophenyl)-2-[4′-(trifluoromethoxy)-1,1′-biphenyl-4-yl]-3,4-dihydro-2H-pyrrole] | 4.13 | –

Other lines, results leading:

Row | chromatographic logP [1] | melting point [°C] | Compound
5 | 4.35 | – | C=C(c1ccccc1)N1C(=O)CCC1c1ccc(-c2ccc(OC(F)(F)F)cc2)cc1 (centres unmarked) [IX-1, 1-(1-phenylvinyl)-5-[4′-(trifluoromethoxy)-1,1′-biphenyl-4-yl]-2-pyrrolidinone]
6 | 3.8 | – | O=C1CCC(c2ccc(-c3ccc(OC(F)(F)F)cc3)cc2)N1C(CO)c1ccccc1 (centres unmarked) [VII-1, 1-[2-hydroxy-1-phenylethyl]-5-[4′-(trifluoromethoxy)-1,1′-biphenyl-4-yl]-2-pyrrolidinone]
7 | 4.78 | – | O=C1CCC(c2ccc(-c3ccc(OC(F)(F)F)cc3)cc2)N1C(CCl)c1ccccc1 (centres unmarked) [VIII-1, 1-[2-chloro-1-phenylethyl]-5-[4′-(trifluoromethoxy)-1,1′-biphenyl-4-yl]-2-pyrrolidinone]
8 | 2.95 | – | O=C1CCC(c2ccc(-c3ccc(OC(F)(F)F)cc3)cc2)N1 (centres unmarked) [Example X-1, 5-[4′-(trifluoromethoxy)-1,1′-biphenyl-4-yl]-2-pyrrolidinone]
